Here are results for six compounds from ChEMBL document CHEMBL1671815, “A practical use of ligand efficiency indices out of the fragment-based approach: ligand efficiency-guided lead identification of soluble epoxide hydrolase inhibitors” (J Med Chem, 2011).

The subject of data set [1] is Liver microsomes. Briefly: Intrinsic clearance in rat liver microsome measured per mg of protein. The class given is ADME. A general note: Liver microsomes are a subcellular fraction often used to study metabolism.
The target in data set [2] is T1, Bifunctional epoxide hydrolase 2 (Homo sapiens, UniProt P34913).
T1 sequence (P34913 whole entry): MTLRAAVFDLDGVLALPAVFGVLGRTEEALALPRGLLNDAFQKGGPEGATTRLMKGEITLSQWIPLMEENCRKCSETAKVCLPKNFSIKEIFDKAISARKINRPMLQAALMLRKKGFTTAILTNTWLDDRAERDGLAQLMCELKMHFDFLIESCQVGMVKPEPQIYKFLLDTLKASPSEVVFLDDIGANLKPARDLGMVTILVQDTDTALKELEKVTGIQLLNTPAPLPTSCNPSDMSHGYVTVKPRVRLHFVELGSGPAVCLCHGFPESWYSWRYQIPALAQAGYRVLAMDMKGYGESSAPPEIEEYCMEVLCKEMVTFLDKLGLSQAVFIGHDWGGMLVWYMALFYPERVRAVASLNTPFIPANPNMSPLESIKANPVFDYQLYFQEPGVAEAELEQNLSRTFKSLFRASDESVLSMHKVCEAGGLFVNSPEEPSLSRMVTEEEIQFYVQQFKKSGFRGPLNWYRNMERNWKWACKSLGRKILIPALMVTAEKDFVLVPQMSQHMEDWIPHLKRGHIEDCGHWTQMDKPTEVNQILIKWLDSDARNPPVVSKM
Briefly: Inhibition of human soluble epoxide hydrolase in cell free system.

A short description of data set [3]: Aqueous solubility of the compound at pH 7.4. The class given is physicochemical.
The target of data set [4] is T2, Bifunctional epoxide hydrolase 2 (Rattus norvegicus, UniProt P80299).
T2 sequence (P80299 whole entry): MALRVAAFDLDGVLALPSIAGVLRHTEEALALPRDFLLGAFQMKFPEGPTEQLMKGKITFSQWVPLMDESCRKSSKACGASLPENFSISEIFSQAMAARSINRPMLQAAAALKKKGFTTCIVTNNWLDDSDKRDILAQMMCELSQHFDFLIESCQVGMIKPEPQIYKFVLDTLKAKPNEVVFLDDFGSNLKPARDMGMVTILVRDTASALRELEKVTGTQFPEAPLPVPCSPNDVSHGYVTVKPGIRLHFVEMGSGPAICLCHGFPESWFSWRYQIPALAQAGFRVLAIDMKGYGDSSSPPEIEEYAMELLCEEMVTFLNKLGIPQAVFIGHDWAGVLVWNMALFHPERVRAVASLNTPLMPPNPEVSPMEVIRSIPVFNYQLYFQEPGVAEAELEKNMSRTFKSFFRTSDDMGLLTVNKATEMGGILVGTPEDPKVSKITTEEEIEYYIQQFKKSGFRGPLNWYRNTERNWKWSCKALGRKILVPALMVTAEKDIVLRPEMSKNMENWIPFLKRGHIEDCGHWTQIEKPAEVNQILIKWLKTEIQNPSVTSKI
Briefly: Inhibition of rat soluble epoxide hydrolase in cell free system.

Data set [5] deals with T1, Bifunctional epoxide hydrolase 2. Nature of the data set: Inhibition of soluble epoxide hydrolase in human HepG2 cells after 30 mins. It counts as cell-based.
Data set [6] concerns Liver microsomes. Nature of the data set: Intrinsic clearance in human liver microsome measured per mg of protein. The class given is ADME.
A further data set deals with Cytochrome P450 2C19 (Homo sapiens, UniProt P33261). Nature of the data set: Inhibition of CYP2C19. It counts as ADME.
Cytochrome P450 2C19, sequence (P33261 whole entry): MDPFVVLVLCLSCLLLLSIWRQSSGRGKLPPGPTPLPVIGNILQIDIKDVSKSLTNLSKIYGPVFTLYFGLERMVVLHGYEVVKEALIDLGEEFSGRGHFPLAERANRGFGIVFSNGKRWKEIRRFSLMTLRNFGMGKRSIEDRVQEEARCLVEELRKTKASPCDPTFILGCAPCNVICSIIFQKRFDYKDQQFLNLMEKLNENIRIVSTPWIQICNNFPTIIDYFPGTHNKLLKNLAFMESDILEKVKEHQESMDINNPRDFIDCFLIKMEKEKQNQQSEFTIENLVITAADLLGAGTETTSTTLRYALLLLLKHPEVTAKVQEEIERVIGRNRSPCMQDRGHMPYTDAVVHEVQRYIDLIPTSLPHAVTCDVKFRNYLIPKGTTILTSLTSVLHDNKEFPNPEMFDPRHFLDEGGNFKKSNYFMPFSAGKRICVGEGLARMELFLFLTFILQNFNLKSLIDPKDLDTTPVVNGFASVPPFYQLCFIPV
The test system of the next data set is HepG2. Briefly: Cytotoxicity against human HepG2 cells up to 100 uM. It counts as cell-based.
The target of another data set is T3, Cytochrome P450 1A2 (Homo sapiens, UniProt P05177).
T3 sequence (P05177 whole entry): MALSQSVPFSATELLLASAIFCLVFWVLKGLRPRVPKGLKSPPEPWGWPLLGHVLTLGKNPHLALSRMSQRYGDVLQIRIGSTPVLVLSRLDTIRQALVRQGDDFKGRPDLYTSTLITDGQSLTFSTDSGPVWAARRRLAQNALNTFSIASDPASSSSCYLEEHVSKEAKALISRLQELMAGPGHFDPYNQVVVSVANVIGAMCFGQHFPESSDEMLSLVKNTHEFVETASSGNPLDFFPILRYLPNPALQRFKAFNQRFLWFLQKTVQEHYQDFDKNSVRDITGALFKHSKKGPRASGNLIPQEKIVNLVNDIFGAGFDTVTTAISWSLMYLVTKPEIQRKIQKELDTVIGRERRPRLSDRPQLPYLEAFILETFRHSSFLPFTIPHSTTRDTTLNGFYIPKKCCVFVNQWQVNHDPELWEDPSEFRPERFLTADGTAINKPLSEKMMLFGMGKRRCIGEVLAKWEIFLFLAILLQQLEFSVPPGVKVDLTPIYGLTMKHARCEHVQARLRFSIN
Nature of the data set: Inhibition of CYP1A2. It counts as ADME.

For orientation: IC50 means the concentration that gives 50% inhibition. A higher IC50 goes with weaker potency. The solubility is how much of the substance goes into solution per volume. Read a low solubility as little dissolved substance. For the compound `COc1cccc2c1CC(C(=O)N[C@H]1C[C@@H]1c1ccccc1)CC2` (mixture of isomers), the CL in the data set with Liver microsomes [1] and in the data set with Liver microsomes [6] was more than 100 µL/min/mg each time. For the same compound, the IC50 is 6.46 nM in data set [2], 3.02 nM in data set [4], 4.68 nM in data set [5] and less than 10000 nM on Cytochrome P450 2C19. The solubility in [3] is less than 1 µg/mL.

In turn, `CC(C)c1noc(C2CCN(C(=O)N[C@H]3C[C@@H]3c3ccccc3)CC2)n1` (racemic) yielded an IC50 in data set [4] of 13 nM. Moreover, the Activity result with HepG2 was “Non-toxic”.

Regarding `O=C(N[C@H]1C[C@@H]1c1ccccc1)c1ccc2nonc2c1` (racemic), the IC50 was 61.7 nM in [2], 240 nM in [4] and less than 10000 nM against Cytochrome P450 2C19. Besides, in data set [3], the solubility is less than 1 µg/mL.

As to `Cc1nc2cc(NC(=O)N[C@H]3C[C@@H]3c3ccccc3)ccc2o1` (racemic), the CL with Liver microsomes [1] and with Liver microsomes [6] was more than 100 µL/min/mg in each case. Besides, the IC50 was 39.8 nM in data set [2], 20 nM in data set [4] and 81.3 nM in [5]. In data set [3], the solubility is less than 1 µg/mL.

`CN(C)c1ccc(CNC(=O)N[C@H]2C[C@@H]2c2ccccc2)cc1` (racemic): the CL with Liver microsomes [1] was more than 100 µL/min/mg. For the same compound, the values for the IC50 (in data set [2]; at Cytochrome P450 1A2; against Cytochrome P450 2C19) were 30.2 nM, less than 10000 nM and less than 10000 nM, respectively.

The compound `O=C(NC1CCN(c2ccccc2)CC1)N[C@H]1C[C@@H]1c1ccccc1` (racemic) had a CL with Liver microsomes [1] of more than 100 µL/min/mg. The IC50 in data set [2] was 2.29 nM; in data set [4] it was 1.7 nM; in data set [5] it was 7.94 nM. The compound also came in with a solubility in data set [3] of less than 1 µg/mL.
